Laboratory results: US6569637B1, “Diagnostic reagents for renal function disorders and method for analyzing urine samples” (Kikkoman Corporation, priority 1997, dated 2003)

Set-up: species or system patient
Details: in vivo
Experimental: An ATP standard reagent was prepared by dissolving sodium salt of ATP in 25 mM HEPES buffer (pH7.75) at a concentration of 2×10^−6M.
Two-hundreds μl of a urine sample obtained from a patient suffering from renal dysfunction who received cisplatin administration was added and reacted with 200 μl of the ATP standard reagent prepared as described above at 37° C. for 30 minutes.
The solution was 10-fold diluted with 20 mM phosphate buffer (pH7.5), and 200 μl of the diluted solution was transferred into a test tube for ATP measurement. Then, 100 μl of luciferin-luciferase luminescent reagent which had been prepared by dissolving the freeze-dried luminescent reagent (included in ATP assay kit “CheckLite™” available from Kikkoman Corporation) in a solution for dissolving the reagent (also included in the kit) was added to the solution in the tube. The luminescent level based on the ATP level remaining after the reaction was immediately determined using Lumitester K-210.
On the other hand, the luminescent level corresponding to the ATP level in a urine sample before the reaction was determined in the same matter.
Diagnosis of renal dysfunction by ATP method was performed by calculating the ATP index (residual ATP %) according to the equation below and determining whether the subject is a patient with renal dysfunction S or a healthy individual R according to the following criteria. […]

N.N.[Cl][Pt][Cl] [cisplatin]
residual ATP % in urine sample (ATP index): decreases to the minimum
